From ChEMBL document CHEMBL6182910, “Design, Synthesis, and Biological Evaluation of 4-(Difluoromethyl)-1H-imidazole-5-carboxylic Acids/4-(3-Cyanophenoxy)pyrimidine-5-carboxylic Acids as P2Y1 Receptor Antagonists for Ischemic Stroke Treatment” (J Med Chem, 2025)
Active and inactive are the calls of the source. The calls are words filed in the database; no cut-off is given here.

Legend:
Plasma [1] = experiment: Anti-platelet aggregation in platelet-rich plasma of male Japanese white rabbit assessed as inhibition of ADP-induced platelet aggregation preincubated for 15 mins followed by ADP addition measured up to 10 mins by Born's turbidometric method; type: functional, cell-free; details: Oryctolagus cuniculus
HT-22 = experiment: Neuroprotective activity against H2O2-induced oxidative stress in mouse HT-22 cells assessed as cell viability at 10 uM preincubated for 2 hrs followed by H2O2 addition measured after 24 hrs by MTT assay (reference value: 55 +/- 4.6 %); type: functional; details: for viability at 10 µM: time 26 hrs, read-out: Activity; for Activity: time 26.0 hrs
Plasma [2] = experiment: Anti-platelet aggregation in platelet-rich plasma of male male Sprague-Dawley rat assessed as inhibition of ADP-induced platelet aggregation preincubated for 15 mins followed by ADP addition measured up to 10 mins by Born's turbidometric method; type: functional, cell-free
Plasma [3] = experiment: Anti-platelet aggregation in platelet-rich plasma of male human assessed as inhibition of ADP-induced platelet aggregation preincubated for 15 mins followed by ADP addition measured up to 10 mins by Born's turbidometric method; type: functional, cell-free
[4] = Antagonist activity at P2Y1 receptor in platelet-rich plasma of male Japanese white rabbit assessed as inhibition of ADP-induced cytosolic Ca2+ level pretreated for 5 mins followed by ADP addition by FLUO-4 AM dye based analysis; type: cell-free; details: Oryctolagus cuniculus
P2Y purinoceptor 1 = P2Y purinoceptor 1 (Rattus norvegicus, UniProt P49651); experiment: Antagonist activity at P2Y1 receptor in platelet-rich plasma of rat assessed as inhibition of ADP-induced cytosolic Ca2+ level pretreated for 5 mins followed by ADP addition by FLUO-4 AM dye based analysis; type: functional, cell-free
Oryctolagus cuniculus = species: Oryctolagus cuniculus; experiment: Antagonist activity at P2Y12 receptor in platelet-rich plasma of male Japanese white rabbit assessed as inhibition of VASP phosphorylation at Ser239 at 30 uM pretreated for 10 mins followed by PGE1/ADP addition measured after 10 mins by ELISA relative to control; type: cell-free; details: time 20.0 min
[5] = target: P2Y purinoceptor 12 (Rattus norvegicus) (UniProt Q9EPX4); experiment: Antagonist activity at P2Y12 receptor in platelet-rich plasma of male Sprague-Dawley rat assessed as inhibition of VASP phosphorylation at Ser239 at 30 uM pretreated for 10 mins followed by PGE1/ADP addition measured after 10 mins by ELISA relative to control; type: cell-free; details: time 20.0 min
Rattus norvegicus [6] = experiment: Anti-platelet aggregation in Sprague-Dawley rat assessed as inhibition of ADP-induced platelet aggregation at 10 mg/kg, po measured for 15 mins in presence of 2.5 uM ADP by cell counter analysis relative to control; type: functional; details: 0.25 h
Rattus norvegicus [7] = experiment: Anti-platelet aggregation in Sprague-Dawley rat assessed as inhibition of ADP-induced platelet aggregation at 10 mg/kg, po measured for 15 mins in presence of 5 uM ADP by cell counter analysis relative to control; type: functional; details: 0.25 h
Rattus norvegicus [8] = experiment: Anti-platelet aggregation in Sprague-Dawley rat assessed as inhibition of ADP-induced platelet aggregation at 10 mg/kg, po measured for 15 mins in presence of 10 uM ADP by cell counter analysis relative to control; type: functional; details: 0.25 h
Rattus norvegicus [9] = experiment: Neuroprotective activity in MCAO-induced brain damage Sprague-Dawley rat model assessed as reduction in brain water content at 10 mg/kg, iv administered immediately after arterial occlusion measured after 24 hrs; type: functional, organism-based
Rattus norvegicus [10] = experiment: Neuroprotective activity in MCAO-induced brain damage Sprague-Dawley rat model assessed as plasma MDA level at 10 mg/kg, iv administered immediately after arterial occlusion measured after 24 hrs (reference value: 51.7 %); type: functional
Rattus norvegicus [11] = experiment: Neuroprotective activity in MCAO-induced brain damage Sprague-Dawley rat model assessed as plasma GSH-px level at 10 mg/kg, iv administered immediately after arterial occlusion measured after 24 hrs; type: functional
[12] = Antioxidant activity assessed as inhibition of DPPH radical scavenging activity incubated for 30 mins under dark condition by absorbance based method; type: functional
Rattus norvegicus [13] = experiment: Anti-platelet aggregation in Sprague-Dawley rat assessed as inhibition of ADP-induced platelet aggregation at 6 mg/kg, po measured for 15 mins in presence of 5 uM ADP by cell counter analysis relative to control; type: functional; details: 0.25 h
Rattus norvegicus [14] = experiment: Anti-platelet aggregation in Sprague-Dawley rat assessed as inhibition of ADP-induced platelet aggregation at 6 mg/kg, po measured for 15 mins in presence of 2.5 uM ADP by cell counter analysis relative to control; type: functional; details: 0.25 h
Rattus norvegicus [15] = experiment: Anti-platelet aggregation in Sprague-Dawley rat assessed as inhibition of ADP-induced platelet aggregation at 6 mg/kg, po measured for 15 mins in presence of 10 uM ADP by cell counter analysis relative to control; type: functional; details: 0.25 h
Rattus norvegicus [16] = experiment: Neuroprotective activity in MCAO-induced brain damage Sprague-Dawley rat model assessed as reduction in brain infarction size at 6 mg/kg, iv administered immediately after arterial occlusion measured after 24 hrs by TTC staining based analysis relative to control; type: functional; parameters: scale not given: the % may be the effect or the level left
Rattus norvegicus [17] = experiment: Neuroprotective activity in MCAO-induced brain damage Sprague-Dawley rat model assessed as reduction in brain water content at 6 mg/kg, iv administered immediately after arterial occlusion measured after 24 hrs; type: functional, organism-based
Rattus norvegicus [18] = experiment: Neuroprotective activity in MCAO-induced brain damage Sprague-Dawley rat model assessed as plasma MDA level at 6 mg/kg, iv administered immediately after arterial occlusion measured after 24 hrs (reference value: 51.7 %); type: functional
Rattus norvegicus [19] = experiment: Neuroprotective activity in MCAO-induced brain damage Sprague-Dawley rat model assessed as plasma GSH-px level at 6 mg/kg, iv administered immediately after arterial occlusion measured after 24 hrs; type: functional
Rattus norvegicus [20] = experiment: Neuroprotective activity in MCAO-induced brain damage Sprague-Dawley rat model assessed as reduction in brain infarction size at 10 mg/kg, iv administered immediately after arterial occlusion measured after 24 hrs by TTC staining based analysis relative to control; type: functional; parameters: scale not given: the % may be the effect or the level left
[21] = Antagonist activity at P2Y12 receptor in platelet-rich plasma of male Japanese white rabbit assessed as inhibition of VASP phosphorylation at Ser239 pretreated for 10 mins followed by PGE1/ADP addition measured after 10 mins by ELISA; type: cell-free; details: Oryctolagus cuniculus
P2Y purinoceptor 12 = P2Y purinoceptor 12 (Rattus norvegicus, UniProt Q9EPX4); experiment: Antagonist activity at P2Y12 receptor in platelet-rich plasma of male Sprague-Dawley rat assessed as inhibition of VASP phosphorylation at Ser239 pretreated for 10 mins followed by PGE1/ADP addition measured after 10 mins by ELISA; type: cell-free
Sequence of P2Y purinoceptor 12 (Q9EPX4 whole entry): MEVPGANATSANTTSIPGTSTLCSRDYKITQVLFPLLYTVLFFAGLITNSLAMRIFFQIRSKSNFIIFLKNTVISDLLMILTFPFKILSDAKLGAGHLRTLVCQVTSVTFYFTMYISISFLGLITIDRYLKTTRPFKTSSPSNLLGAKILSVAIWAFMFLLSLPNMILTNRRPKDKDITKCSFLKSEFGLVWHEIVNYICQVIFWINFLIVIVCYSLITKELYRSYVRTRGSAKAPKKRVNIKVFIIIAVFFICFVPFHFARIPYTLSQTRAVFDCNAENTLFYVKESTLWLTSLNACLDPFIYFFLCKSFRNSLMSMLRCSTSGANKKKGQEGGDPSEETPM

Sequence of P2Y purinoceptor 12 (Rattus norvegicus) (Q9EPX4 whole entry): as above
Sequence of P2Y purinoceptor 1 (P49651 whole entry): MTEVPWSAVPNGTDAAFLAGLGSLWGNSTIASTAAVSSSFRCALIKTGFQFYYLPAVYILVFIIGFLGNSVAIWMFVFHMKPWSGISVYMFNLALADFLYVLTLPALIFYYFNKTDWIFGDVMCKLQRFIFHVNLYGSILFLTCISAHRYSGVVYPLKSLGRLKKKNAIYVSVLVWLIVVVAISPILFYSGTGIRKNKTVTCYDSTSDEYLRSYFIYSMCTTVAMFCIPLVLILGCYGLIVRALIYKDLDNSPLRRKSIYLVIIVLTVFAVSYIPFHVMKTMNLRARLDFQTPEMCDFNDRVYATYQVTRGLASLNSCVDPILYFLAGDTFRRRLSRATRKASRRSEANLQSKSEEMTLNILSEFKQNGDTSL

SMILES | IC50 (Plasma [1]) | viability at 10 µM (HT-22) | IC50 (Plasma [2]) | IC50 (Plasma [3]) | inhibition in vivo at 10 mg/kg (Rattus norvegicus [6]) | inhibition in vivo at 10 mg/kg (Rattus norvegicus [7]) | inhibition in vivo at 10 mg/kg (Rattus norvegicus [8]) | Activity (HT-22) | also measured
CC(C)(C)c1ccccc1Oc1ncccc1NC(=O)Nc1ccc(OC(F)(F)F)cc1 | 4420 nM | 82.6% | 3310 nM | 3400 nM | 65.9% | 64.6% | 34.4% |  | IC50 [4]: 2500 nM; IC50 (P2Y purinoceptor 1): 2660 nM; inhibition (Oryctolagus cuniculus): 30.3%; inhibition [5]: 37.6%; Activity (Rattus norvegicus [9]): Active; Water Content Did Not Return To Blank Level; Activity (Rattus norvegicus [10]): 44.1%; Activity (Rattus norvegicus [11]): 489.1 U/ml
CC1=NN(c2ccccc2)C(=O)C1 [EDARAVONE] |  |  |  |  |  |  |  |  | IC50 [12]: 23600 nM; inhibition in vivo at 6 mg/kg (Rattus norvegicus [13]): 48.5%; inhibition in vivo at 6 mg/kg (Rattus norvegicus [14]): 55.4%; inhibition in vivo at 6 mg/kg (Rattus norvegicus [15]): 29.4%; Activity (Rattus norvegicus [16]): 35.7%; Activity (Rattus norvegicus [17]): Active; Water Content Did Not Return To Blank Level; Activity (Rattus norvegicus [18]): 31%; Activity (Rattus norvegicus [19]): 579.3 U/ml
Cc1nc(-c2cccc(C#N)c2)n(OCc2ccc(C#N)cc2)c1C(=O)O | 3500 nM | 81.3% | 3840 nM | 4240 nM | 34.9% | 35.1% | 19.1% |  | IC50 [4]: 4070 nM; IC50 (P2Y purinoceptor 1): 2950 nM; inhibition (Oryctolagus cuniculus): 27.9%; inhibition ([5]; filed as antagonist): 40.8%; Activity (Rattus norvegicus [20]): 33.6%; Activity (Rattus norvegicus [9]): Active; Water Content Did Not Return To Blank Level; Activity (Rattus norvegicus [10]): 48.8%; Activity (Rattus norvegicus [11]): 677.6 U/ml
CCCSc1nc(N[C@@H]2C[C@H]2c2ccc(F)c(F)c2)c2nnn([C@@H]3C[C@H](OCCO)[C@@H](O)[C@H]3O)c2n1 [TICAGRELOR] | 500 nM | 76% | 560 nM | 690 nM | 71.8% | 73.7% | 77.7% |  | IC50 [21]: 2890 nM; IC50 (P2Y purinoceptor 12): 2110 nM
N#Cc1cccc(-c2nc(C(F)F)c(C(=O)O)n2OCc2ccccn2)c1 | > 10000 nM | 75.9% |  |  |  |  |  |  | 
COCc1nc(-c2cccc(C#N)c2)n(OCc2ccc(C#N)cc2)c1C(=O)O | 1620 nM |  |  |  |  |  |  | inactive | 
CN(C)c1nc(COn2c(-c3cccc(C#N)c3)nc(C(F)F)c2C(=O)O)cs1 | 3710 nM | 62.4% |  |  |  |  |  |  | 
CC(C)c1nc(-c2cccc(C#N)c2)n(OCc2ccc(C#N)cc2)c1C(=O)O | 1620 nM |  |  |  |  |  |  | inactive | 
N#Cc1cccc(-c2nc(C(F)F)c(C(=O)O)n2OCc2cocn2)c1 | 1690 nM |  |  |  |  |  |  | inactive | 
Cc1nc(-c2cccc(C#N)c2)nc(OCc2ccc(C#N)cc2)c1C(=O)O | 5020 nM |  |  |  |  |  |  | inactive | 
